According to patent US6946480B2, “Glutaminyl based DPIV inhibitors” (priority 2002, dated 2005):

How the values were obtained:
[1] = target: T1, Dipeptidyl Peptidase I (DP I, Cathepsin C) (Rattus norvegicus, UniProt P80067); experiment: Cross reacting enzymes - dipeptidyl peptidase I; format: biochemical; settings: concentration range 1*10^−5 M-1*10^−7 M
T1 construct: purchased Qiagen GmbH, Hilden, Germany
Protocol: Glutaminyl pyrrolidine or glutaminyl thiazolidine were tested for their cross reacting potency against dipeptidyl peptidase I, prolyl oligopeptidase and prolidase.
DP I or cathepsin C is a lysosomal cysteine protease which cleaves off dipeptides from the N-terminus of their substrates (Gutman, H. R. & Fruton, J. S., 1948, J. Biol: Chem., 174, 851-858) . It is classified as a cysteine protease.
The enzyme used was purchased from Qiagen (Qiagen GmbH, Hilden, Germany). In order to get a fully active enzyme, the enzyme was diluted 1000fold in MES buffer pH5,6 (40 mM MES, 4 mM DTT, 4 mM KCl, 2 mM EDTA, 0.015% Brij) and pre-incubated for 30 min at 30° C.
50 μl glutaminyl pyrrolidine or glutaminyl thiazolidine in a concentration range of 1*10^−5 M-1*10^−7 M were admixed with 110 μl buffer-enzyme-mixture. The assay mixture was pre-incubated at 30° C. for 15 min After pre-incubation, 100 μl histidylseryl-β-nitroaniline (2*10^−5 M) were added and measurement of yellow color development due to β-nitroaniline release was performed at 30° C. and […] for 10 min, using a plate reader (HTS7000 plus, Applied Biosystems, Weiterstadt, Germany).
The IC50-values were calculated using Graphit 4.0.15 (Erithacus Software, Ltd., UK).

[2] = Plasma stability (half-life of inhibitory potency in human plasma); format: in vitro ADME
Protocol: In order to investigate the stability of glutaminyl pyrrolidine or glutaminyl thiazolidine in human plasma, the activity of DPIV in plasma was determined at a defined time. The average DPIV activity in human plasma was determined as 43.69 U/ml. In the working solution, the plasma was diluted in 0.9% NaCl to fix the DPIV activity level at 25 U/ml.
Plasma and glutaminyl pyrrolidine or glutaminyl thiazolidine in different concentrations (5*10^−5, 2.5*10^−5, 1.25*10^−5M in plasma) were incubated at 37° C. At defined time points samples were taken using a pipette roboter (Gilson 215, Liquid handler, Gilson) and transferred in a microtiter plate containing 5*10^−5M glycylprolylaminomethylcoumarine in 0.9% NaCl+015% Brij per well. After 6 min the reaction was stopped by addition of isoleucylthiazolidine (5*10^−5M in 0.9% NaCl solution).
Fluorescence measurement was performed against 0.9% NaCl in plasma (reference standard) using a plate reader (HTS7000plus, Applied Biosystems, Weiterstadt, Germany). The half-life of the inhibitory potency of glutaminyl pyrrolidine or glutaminyl thiazolidine was calculated by plotting the enzyme activity versus reaction time.

T1 sequence (P80067 25-134 limits assumed): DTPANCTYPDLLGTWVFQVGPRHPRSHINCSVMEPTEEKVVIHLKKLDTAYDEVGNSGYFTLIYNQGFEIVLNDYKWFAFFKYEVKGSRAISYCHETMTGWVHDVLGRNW
T1 sequence (P80067 230-393 limits assumed): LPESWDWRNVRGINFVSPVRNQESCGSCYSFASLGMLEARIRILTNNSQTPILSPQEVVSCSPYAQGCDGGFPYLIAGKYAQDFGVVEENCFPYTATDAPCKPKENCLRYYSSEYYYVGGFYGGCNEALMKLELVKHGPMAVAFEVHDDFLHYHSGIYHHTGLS
T1 sequence (P80067 394-462 limits assumed): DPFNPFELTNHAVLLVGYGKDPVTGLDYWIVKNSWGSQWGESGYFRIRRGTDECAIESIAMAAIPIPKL

SMILES: NC(=O)CC[C@H](N)C(=O)N1CCCC1 [glutaminyl pyrrolidine]
- inhibition of DP I enzyme activity [1]: no inhibition
- half-life of the inhibitory potency in human plasma ([2]; 37° C., 5*10^−5, 2.5*10^−5, 1.25*10^−5M): no half-time could be determined
- stability in human plasma ([2]; over 22 hours): stable in human plasma over 22 hours
